Among the data in the METLIN SMRT retention time set (Domingo-Almenara et al. 2019) are RP-LC retention time values, retold here.

The data set can be described thus: gradient 5% acetonitrile 3 min, to 50% in 2 min, to 85% in 15 min, held 3 min, 100 µL/min. Particulars: column: Zorbax Extend-C18 2.1 x 50 mm; eluents: water / acetonitrile, 0.1% formic acid. The gist of the method:
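The mobile phases were water and acetonitrile, each with 0.1% formic acid, pumped at 100 μL/min through a Zorbax Extend-C18 column (2.1 × 50 mm, 1.8 μm). Pure standards were injected as mixtures of ~100 molecules and detected by a quadrupole time-of-flight mass spectrometer in positive and negative ionization mode. Retention time came from computationally picked adduct peaks, each inspected by hand.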
In turn, `CCOc1cc(=O)n2c(c1C(=O)Nc1ccc(OC)cc1OC)CCCC2` yielded an RP-LC retention time of 706 s.

Molecule `O=C(NCC1CC(=O)N(Cc2ccccc2)C1)c1cccc(Cl)c1` (stereo not given) returned an RP-LC retention time of 727 s. To `COc1cccc(Cn2nc3n(CCC(=O)NC4CCCC4)c(=O)c4ccccc4n3c2=O)c1` belongs 873 s; to `O=C(c1cccc(Cl)c1)N1CCc2cc(-c3ccno3)ccc21`, 999 s; to `Fc1cccc(CSc2ccc(-n3ccnc3)nn2)c1`, 604 s. Take `CN1C(=O)c2cccnc2Sc2cc(NC(=O)c3ccsc3)ccc21`: the RP-LC retention time was determined as 725 s. The result for `CN1C(=O)c2cc(C(=O)NCc3ccccc3)nn2CC1(C)C(=O)NCc1ccccc1` (stereo not given) reads 685 s; that for `O=[N+]([O-])c1ccc(CSc2ccc(-c3ccccn3)nn2)cc1`, 893 s.

Consider `CCC1CN2C=NC(N3CCN(S(=O)(=O)c4cc(Cl)ccc4OC)CC3)=CC2=N1` (stereo not given), for which the RP-LC retention time was determined as 705 s. To `CCC1c2nccn2CCCN1C(=O)CCc1c(C)noc1C` (stereo not given) belongs 623 s. On to `Cc1cccc(N2CCN(C(=O)c3cn4ccccc4n3)CC2)c1C`, for which the RP-LC retention time is 776 s. The molecule `CC1=C(c2cccc(Cl)c2)S(=O)(=O)N=C1N1CCCN(C(=O)NC(C)(C)C)CC1` registered an RP-LC retention time of 883 s. To `CCNC(=O)c1cnn(-c2ccc(-c3nc(C(C)C)no3)cn2)c1C` belongs 983 s; to `CCOc1nc2ccccc2nc1N1CCCC(C(=O)Nc2c(Cl)cccc2Cl)C1` (stereo not given), 1290 s. The result for `COc1cccc(N2C(=O)C3N=NN(Cc4nc(-c5ccc(Cl)cc5)no4)C3C2=O)c1` (stereo not given) reads 1010 s.

`Cc1cc(N2CCN(c3ccccn3)CC2)n2ncc(-c3ccccc3Cl)c2n1` displayed an RP-LC retention time of 732 s. Molecule `CCCNC(=O)N1CCC2(CCCCO2)CC1` yielded an RP-LC retention time of 602 s. In turn, `Cc1sc2ccn(C)c(=O)c2c1C(=O)NCCN1CCc2ccccc2C1` had an RP-LC retention time of 687 s. The result for `Cn1c(=O)n(C)c2cc(S(=O)(=O)C3CCCCC3)c(NC(=O)c3ccccc3)cc21` reads 982 s. The result for `CC(=O)N1CCOc2ccc(S(=O)(=O)N3CCCC3C(=O)Nc3nccs3)cc21` (stereo not given) reads 735 s; that for `CCN1c2ccc(F)cc2C(=O)NC12CCN(C(=O)c1cccc(C)c1)CC2`, 827 s; that for `CC(C)c1noc(C2CCCN(C(=O)NC(C)(C)C)CCC(=O)NCC2)n1` (stereo not given), 690 s.

For the molecule `CCCn1c(CCNC(=O)c2ccc(F)c(F)c2)nc2cccnc21`, the RP-LC retention time was determined as 683 s.

With `Clc1ccccc1-c1csc(Nc2ccccn2)n1`, the RP-LC retention time came out at 960 s.

In turn, `Cc1ccc(C2Cn3nnc(-c4nc(-c5ccc(F)cc5)no4)c3CO2)c(C)c1` (stereo not given) yielded an RP-LC retention time of 1300 s. For the molecule `COc1cc(NS(=O)(=O)c2cc(-c3nc(C)cs3)n(CC(=O)N3CCCC3)c2)cc(OC)c1`, the RP-LC retention time was found to be 877 s.

In turn, `Cc1ccc(C)c(C(=O)Nc2cccn3cnnc23)c1` showed an RP-LC retention time of 734 s. `O=C(Nc1ccc(-c2nnc3n2CCCC3)cc1)c1ccsc1`: the RP-LC retention time is 631 s. The result for `Cc1nn2c(nnc3c(=O)n(CCc4c[nH]c5ccc(F)cc45)ccc32)c1-c1ccc(F)cc1` reads 961 s. Molecule `O=C(NC1CCCCC1)C1CCN(Cc2cc3ccccc3n2Cc2ccc(Cl)cc2)CC1` displayed an RP-LC retention time of 853 s. To `O=c1ccc(N2CCC(NS(=O)(=O)c3cccs3)C2)nn1CCOc1ccccc1` (stereo not given) belongs 801 s; to `COC(=O)c1ccc(C(=O)NCC(O)(c2ccccc2)C(F)(F)F)cc1` (stereo not given), 842 s; to `Cc1cccc(NC(=O)N(C)CCc2noc(COc3ccccc3)n2)c1C`, 913 s. To `Cc1nnc(NC(=O)C2CCN(C(=O)NC3CC3)CC2)s1` belongs 582 s.

In the case of `COC(=O)Nc1ccc(S(=O)(=O)NCc2ccc(C)cc2)cc1`, the RP-LC retention time was 788 s. The result for `CNC(=O)C1CN(C(=O)Nc2cc(C)ccc2C)CC12CCCC2` (stereo not given) reads 715 s; that for `COCCN1CCn2cc(S(=O)(=O)Nc3cc(C)ccc3C)cc2C1=O`, 730 s.

Molecule `O=C(Cc1nnc(-c2ccc3ncccc3c2)o1)NCc1cccc(Cl)c1` returned an RP-LC retention time of 722 s. To `CC(=O)N1CCc2cc(N3CC(C(=O)NCc4ccc(C(F)(F)F)cc4)CC3=O)ccc21` (stereo not given) belongs 748 s; to `O=C(Nc1ccccc1F)N1CCCC1c1nncn1-c1ccccc1` (stereo not given), 683 s; to `O=C(CSc1nnc(-c2cccnc2)o1)Nc1c(Cl)cccc1Cl`, 654 s.

Regarding `COc1nc2ccccc2nc1N1CCCC(C(=O)Nc2cc(C)c(Br)cc2C)C1` (stereo not given), the RP-LC retention time was 1290 s. The result for `COC(=O)CNC(=O)Nc1ccc2nc(-c3ccccc3)cc(OC)c2c1` reads 629 s; that for `CN1CCc2nnc(C3CCCN3C(=O)Nc3ccc(Cl)cc3F)n2CC1` (stereo not given), 581 s; that for `O=C(COCc1nnc(C(=O)Nc2cccc(F)c2)s1)NCCc1c[nH]c2ccccc12`, 893 s.

In the case of `CC1Oc2ccc(S(=O)(=O)N3CCC(C(=O)Nc4ccc(Cl)cc4)CC3)cc2NC1=O` (stereo not given), the RP-LC retention time was 778 s. The result for `COc1cccc(NC(=O)C2CCN(S(=O)(=O)c3cc(C(=O)N4CCOCC4)cs3)CC2)c1` reads 747 s; that for `Cc1ccc(NC(=O)N2CCCN(c3ccc(=O)n(-c4ccccc4)n3)CC2)c(C)c1`, 763 s; that for `COc1cccc(-c2ccc(=O)n(Cc3nc(-c4ccc(OC(C)C)cc4)no3)n2)c1`, 1140 s.

`Cc1cccc(NC(=O)N2CCC3(CC2)NC(=O)c2ccccc2N3C)c1` had an RP-LC retention time of 616 s. For the molecule `O=c1c2nc(-c3ccc4c(c3)OCO4)cn2ccn1-c1cccc(Cl)c1`, the RP-LC retention time was found to be 834 s. In the case of `O=S(=O)(Nc1ccc(F)cc1)c1cccnc1Nc1cccc(Cl)c1`, the RP-LC retention time came to 1130 s. To `COc1ccc(NC(=O)Cn2c(=O)c(CCC(=O)NC3CCCC3)nc3ccccc32)c(OC)c1` belongs 792 s; to `Cc1cc(C)cc(NS(=O)(=O)c2cc3n(c2)CCN(C(C)C)C3=O)c1`, 808 s. To `COc1ccc(-c2ccnc3nc(C4CC4)nn23)cc1` belongs 805 s. To `CCCN1CCN(C(=O)C2CCN(S(=O)(=O)c3ccc4c(c3)NC(=O)CO4)CC2)CC1` belongs 586 s; to `O=C1C(c2cccs2)N(Cc2ccco2)C(=O)CN1c1ccccc1` (stereo not given), 734 s. For `Cn1cnc(S(=O)(=O)N2CC(Oc3ccccc3-c3nc(C4CC4)no3)C2)c1`, the RP-LC retention time came to 794 s. In turn, `Cc1ccc(NC(=O)C2CCc3nc(N4CCOCC4)ncc3C2)cc1F` (stereo not given) displayed an RP-LC retention time of 735 s. The molecule `COc1ccc(S(=O)(=O)N2CCC(c3noc(-c4ccc(Cl)cc4)n3)CC2)cc1` registered an RP-LC retention time of 1140 s. Take `CCn1c(C(=O)NCCCc2ccccc2)cc2sccc21`: the RP-LC retention time turned out to be 1050 s. As to `CC(C)n1cnnc1CC1CCN(C(=O)C2CCC2)CC1`, the RP-LC retention time was determined as 611 s. The result for `Cc1cc(-c2nnc(C3CCC3)o2)c(C)n1CC(=O)Nc1ccc(Br)cc1F` reads 982 s. To `CC(C)c1cc(C2CCCN2C(=O)c2cccs2)no1` (stereo not given) belongs 862 s. The result for `COc1ccc(OC)c(NC(=O)Cn2cccc(-c3nc(-c4ccc(Cl)cc4)no3)c2=O)c1` reads 1000 s; that for `Cc1ccc(-c2noc(CN3C(=O)COc4cc(Cl)ccc43)n2)cc1`, 1140 s; that for `O=C(Nc1ccc(N2CCOCC2)c(Br)c1)c1ccc2c(c1)OCCCO2`, 959 s.

In turn, `O=C(O)c1cnc(NCC2CC2)nc1-c1ccccc1` registered an RP-LC retention time of 745 s. The result for `CN1C(=O)Cc2ccccc2C1C(=O)NCc1cc(F)ccc1F` (stereo not given) reads 716 s. For `CCOc1cncc(C(=O)N2CCCCC2C)c1` (stereo not given), the RP-LC retention time was found to be 725 s. With `COc1ccc2c(c1)C(C(=O)N(Cc1ccc(N(C)C)cc1)c1ccc(C(C)C)cc1)CCC2` (stereo not given), the RP-LC retention time is 1260 s.

`CCN1CCn2c(nc3cc(C(=O)NCc4ccccc4Br)ccc32)C1=O` came in with an RP-LC retention time of 707 s. With `CCOc1ccc(Nc2c3ccccc3nc3ccccc23)cc1`, the RP-LC retention time was found to be 795 s. To `Cc1cccc(-c2nnc(-c3cc(S(=O)(=O)N4CCCC4)ccc3Cl)o2)c1` belongs 1110 s; to `CCCCCCCCCC(=O)NC(CN1CCOCC1)[C@H](O)c1ccccc1` (stereo not given in full), 888 s. As for `Cc1nnc(-c2ccc(S(=O)(=O)N3CCN(C4CCCCC4)CC3)o2)o1`, the RP-LC retention time came out at 622 s. `CCCc1ccc(S(=O)(=O)N2CCC(C)(C(=O)NCc3ccc(F)cc3)CC2)cc1` yielded an RP-LC retention time of 1070 s. `CC(C)n1c(=O)oc2cc(-c3noc(COc4ccc(Cl)cc4)n3)ccc21`: the RP-LC retention time came to 1170 s. `Cc1csc(-c2ccc(CNC(=O)Cc3cccc(F)c3)cc2)n1` had an RP-LC retention time of 848 s.

Take `O=C(COc1ccc(Cl)cc1)Nc1cccc2c1C(=O)NC2=O`: the RP-LC retention time is 854 s.
